From patent publication US10457672B2, “γ-diketones as Wnt/β-catenin signaling pathway activators” (Samumed, LLC, priority 2013, dated 2019)

Test system: Wnt/β-catenin signaling pathway (Wnt-responsive SP5 promoter luciferase reporter in SW480 cells)
Assay: Wnt reporter (SP5 promoter-firefly luciferase) activation assay in SW480 cells
Assay type: cell-based
Details: SW480 colon cancer cells with SP5 promoter luciferase reporter, 24 h after compound addition, normalized to DMSO, concentration at half maximal activation
Procedure: Compounds that enhance the Wnt activity, or Activators, were assayed as follows. Reporter cell lines were generated by stably transducing cells of colon cancer cell lines (with a lentiviral construct that included a Wnt-responsive promoter driving expression of the firefly luciferase gene).
Lentiviral constructs were made in which the SP5 promoter, a promoter having eight TCF/LEF binding sites derived from the SP5 promoter, was linked upstream of the firefly luciferase gene. The lentiviral constructs also included a hygromycin resistance gene as a selectable marker. The SP5 promoter construct was used to transduce SW480 cells, a colon cancer cell line having a mutated APC gene that generates a truncated APC protein, leading to de-regulated accumulation of β-catenin.
Cultured SW480 cells bearing a reporter construct were distributed at approximately 10,000 cells per well into 384- or 96-well multiwell plates. Compounds from a small molecule compound library were then added to the wells in half-log dilutions using a maximum concentration of three or ten micromolar. A series of control wells for each cell type received only buffer and compound solvent DMSO. Twenty-four hours after the addition of compound, reporter activity for luciferase was assayed, for example, by addition of the BrightGlo luminescence reagent (Promega) and the Victor3 plate reader (Perkin Elmer). Readings were normalized to DMSO only treated cells, and any activities above DMSO were considered activation. Compounds were considered activators if reporter activities were 2× fold or greater than DMSO. EC50 is the concentration at half maximal activation.

Compound	EC50	EC50 (Homo sapiens)
O=C(CC(=O)c1cc(O)c2c(c1O)OCCO2)c1ccccc1 [Compound 3, 1-(5,8-dihydroxy-2,3-dihydrobenzo[b][1,4]dioxin-6-yl)-3-phenylpropane-1,3-dione]	> 10000 nM	
O=C(CCC(=O)c1cc2c(c(O)c1O)OCCO2)c1ccccc1 [Compound 4, 1-(7,8-dihydroxy-2,3-dihydrobenzo[b][1,4]dioxin-6-yl)-4-phenylbutane-1,4-dione]		> 10000 nM
O=C(CCC(=O)c1ccc2c(c1)OCCO2)c1cccc(C(F)(F)F)c1 [Compound 9, 1-(2,3-Dihydrobenzo[b][1,4]dioxin-6-yl)-4-(3-(trifluoromethyl)phenyl)butane-1,4-dione]		100 nM
O=C(CCC(=O)c1ccc2c(c1)OCCO2)c1ccc(C(F)(F)F)cc1 [Compound 10, 1-(2,3-Dihydrobenzo[b][1,4]dioxin-6-yl)-4-(4-(trifluoromethyl)phenyl)butane-1,4-dione]		> 10000 nM
O=C(CCC(=O)c1ccc2c(c1)OCCO2)c1cccc(F)c1 [Compound 11, 1-(2,3-Dihydrobenzo[b][1,4]dioxin-6-yl)-4-(3-fluorophenyl)butane-1,4-dione]		13 nM
COc1ccccc1C(=O)CCC(=O)c1ccc2c(c1)OCCO2 [Compound 12, 1-(2,3-Dihydrobenzo[b][1,4]dioxin-6-yl)-4-(2-methoxyphenyl)butane-1,4-dione]		5 nM
COc1cccc(C(=O)CCC(=O)c2ccc3c(c2)OCCO3)c1 [Compound 13, 1-(2,3-Dihydrobenzo[b][1,4]dioxin-6-yl)-4-(3-methoxyphenyl)butane-1,4-dione]		192 nM
O=C(CCC(=O)c1ccc2c(c1)OCCO2)c1cccnc1 [Compound 14, 1-(2,3-dihydrobenzo[b][1,4]dioxin-6-yl)-4-(pyridin-3-yl)butane-1,4-dione]		306 nM
O=C(CCC(=O)c1ccc2c(c1)OCCO2)c1ccncc1 [Compound 15, 1-(2,3-Dihydrobenzo[b][1,4]dioxin-6-yl)-4-(pyridin-4-yl)butane-1,4-dione]		90 nM
O=C(CCC(=O)c1ccccc1C(F)(F)F)c1ccc2c(c1)SCCO2 [Compound 16, 1-(2,3-Dihydrobenzo[b][1,4]oxathiin-6-yl)-4-(2-(trifluoromethyl)phenyl)butane-1,4-dione]		7 nM
O=C(CCC(=O)c1ccc2c(c1)SCCO2)c1ccc(C(F)(F)F)cc1 [Compound 18, 1-(2,3-Dihydrobenzo[b][1,4]oxathiin-6-yl)-4-(4-(trifluoromethyl)phenyl)butane-1,4-dione]		> 10000 nM
O=C(CCC(=O)c1ccccc1F)c1ccc2c(c1)SCCO2 [Compound 19, 1-(2,3-Dihydrobenzo[b][1,4]oxathiin-6-yl)-4-(2-fluorophenyl)butane-1,4-dione]		3 nM
O=C(CCC(=O)c1ccc2c(c1)SCCO2)c1ccc(F)cc1 [Compound 21, 1-(2,3-Dihydrobenzo[b][1,4]oxathiin-6-yl)-4-(4-fluorophenyl)butane-1,4-dione]		31 nM
O=C(CCC(=O)c1ccc2c(c1)SCCO2)c1ccccc1 [Compound 28, 1-(2,3-Dihydrobenzo[b][1,4]oxathiin-6-yl)-4-phenylbutane-1,4-dione]		9 nM
COc1ccccc1C(=O)CCC(=O)c1ccc2c(c1)OCCC2 [Compound 61, 1-(Chroman-7-yl)-4-(2-methoxyphenyl)butane-1,4-dione]		25 nM
O=C(CCC(=O)c1ccccc1C(F)(F)F)c1ccc2c(c1)CCCO2 [Compound 68, 1-(Chroman-6-yl)-4-(2-(trifluoromethyl)phenyl)butane-1,4-dione]		6 nM
O=C(CCC(=O)c1ccc2c(c1)CCCO2)c1cccc(C(F)(F)F)c1 [Compound 69, 1-(Chroman-6-yl)-4-(3-(trifluoromethyl)phenyl)butane-1,4-dione]		> 10000 nM
O=C(CCC(=O)c1ccccc1F)c1ccc2c(c1)CCCO2 [Compound 71, 1-(Chroman-6-yl)-4-(2-fluorophenyl)butane-1,4-dione]		2.5 nM

Compound	EC50	EC50 (Homo sapiens)
COc1ccc(C(=O)CCC(=O)c2ccc3c(c2)CCCO3)cc1 [Compound 76, 1-(Chroman-6-yl)-4-(4-methoxyphenyl)butane-1,4-dione]		> 10000 nM
O=C(CCC(=O)c1ccc2c(c1)CCCO2)c1ccccc1 [Compound 80, 1-(Chroman-6-yl)-4-phenylbutane-1,4-dione]		10 nM
COc1ccc(C(=O)CCC(=O)c2ccccn2)cc1OC [Compound 207, 1-(3,4-Dimethoxyphenyl)-4-(pyridin-2-yl)butane-1,4-dione]		> 10000 nM
COc1ccc(C(=O)CCC(=O)c2cccnc2)cc1OC [Compound 208, 1-(3,4-Dimethoxyphenyl)-4-(pyridin-3-yl)butane-1,4-dione]		> 10000 nM
COc1ccc(C(=O)CCC(=O)c2ccncc2)cc1OC [Compound 209, 1-(3,4-Dimethoxyphenyl)-4-(pyridin-4-yl)butane-1,4-dione]		> 10000 nM
O=C(CCC(=O)c1ccccc1C(F)(F)F)c1ccc2c(c1)OCO2 [Compound 210, 1-(Benzo[d][1,3]dioxol-5-yl)-4-(2-(trifluoromethyl)phenyl)butane-1,4-dione]		2 nM
O=C(CCC(=O)c1ccccc1F)c1ccc2c(c1)OCO2 [Compound 213, 1-(Benzo[d][1,3]dioxol-5-yl)-4-(2-fluorophenyl)butane-1,4-dione]		18 nM
O=C(CCC(=O)c1ccc2c(c1)OCO2)c1cccc(F)c1 [Compound 214, 1-(Benzo[d][1,3]dioxol-5-yl)-4-(3-fluorophenyl)butane-1,4-dione]		10 nM
COc1ccccc1C(=O)CCC(=O)c1ccc2c(c1)OCO2 [Compound 216, 1-(Benzo[d][1,3]dioxol-5-yl)-4-(2-methoxyphenyl)butane-1,4-dione]		11 nM
COc1cccc(C(=O)CCC(=O)c2ccc3c(c2)OCO3)c1 [Compound 217, 1-(Benzo[d][1,3]dioxol-5-yl)-4-(3-methoxyphenyl)butane-1,4-dione]		343 nM
O=C(CCC(=O)c1ccc2c(c1)OCO2)c1ccccc1 [Compound 222, 1-(Benzo[d][1,3]dioxol-5-yl)-4-phenylbutane-1,4-dione]		3 nM
O=C(CCC(=O)c1ccccn1)c1ccc2c(c1)OC(F)(F)O2 [Compound 232, 1-(2,2-Difluorobenzo[d][1,3]dioxol-5-yl)-4-(pyridin-2-yl)butane-1,4-dione]		134 nM
O=C(CCC(=O)c1ccc2c(c1)OC(F)(F)O2)c1ccccc1 [Compound 235, 1-(2,2-Difluorobenzo[d][1,3]dioxol-5-yl)-4-phenylbutane-1,4-dione]		494 nM
O=C(CCC(=O)c1cccc2c1OCCO2)c1ccc(C(F)(F)F)cc1 [Compound 238, 1-(2,3-Dihydrobenzo[b][1,4]dioxin-5-yl)-4-(4-(trifluoromethyl)phenyl)butane-1,4-dione]		> 10000 nM
O=C(CCC(=O)c1cccc2c1OCCO2)c1cccc(F)c1 [Compound 240, 1-(2,3-Dihydrobenzo[b][1,4]dioxin-5-yl)-4-(3-fluorophenyl)butane-1,4-dione]		669 nM
COc1ccccc1C(=O)CCC(=O)c1cccc2c1OCCO2 [Compound 242, 1-(2,3-Dihydrobenzo[b][1,4]dioxin-5-yl)-4-(2-methoxyphenyl)butane-1,4-dione]		789 nM
O=C(CCC(=O)c1cccc2c1OCCO2)c1ccccc1 [Compound 248, 1-(2,3-Dihydrobenzo[b][1,4]dioxin-5-yl)-4-phenylbutane-1,4-dione]		> 10000 nM
